Measurements as given in ChEMBL document CHEMBL1275533, “In vitro antibacterial activity of vertilmicin and its susceptibility to modifications by the recombinant AAC6'-APH2'' enzyme” (2008).
≈ marks a conversion by molar mass, not a printed value. Calls of active or inactive are those of the source. No cut-off for these calls is given here.

Experiments:
Escherichia coli [1] = assay: Antibacterial activity against non-gentamicin-resistant Escherichia coli clinical isolate after 18 hrs by agar dilution method; type: functional
Klebsiella aerogenes [2] = assay: Antibacterial activity against non-gentamicin-resistant Enterobacter aerogenes clinical isolate after 18 hrs by agar dilution method; type: functional
Citrobacter koseri [3] = assay: Antibacterial activity against non-gentamicin-resistant Citrobacter diversus clinical isolate after 18 hrs by agar dilution method; type: functional
Citrobacter freundii [4] = assay: Antibacterial activity against non-gentamicin-resistant Citrobacter freundii clinical isolate after 18 hrs by agar dilution method; type: functional
Providencia rettgeri [5] = assay: Antibacterial activity against non-gentamicin-resistant Proteus rettgeri clinical isolate after 18 hrs by agar dilution method; type: functional
[6] = system: Acinetobacter calcoaceticus; assay: Antibacterial activity against non-gentamicin-resistant Acinetobacter calcoaceticus clinical isolate after 18 hrs by agar dilution method; type: functional
Pseudomonas aeruginosa [7] = assay: Antibacterial activity against non-gentamicin-resistant Pseudomonas aeruginosa clinical isolate after 18 hrs by agar dilution method; type: functional
Pseudomonas sp. [8] = assay: Antibacterial activity against non-gentamicin-resistant Pseudomonas spp. clinical isolate after 18 hrs by agar dilution method; type: functional
Haemophilus influenzae [9] = assay: Antibacterial activity against non-gentamicin-resistant Haemophilus influenzae clinical isolate after 18 hrs by agar dilution method; type: functional
[10] = system: Haemophilus parainfluenzae; assay: Antibacterial activity against non-gentamicin-resistant Haemophilus parainfluenzae clinical isolate after 18 hrs by agar dilution method; type: functional
Staphylococcus aureus [11] = assay: Antibacterial activity against non-gentamicin-resistant Staphylococcus aureus clinical isolate after 18 hrs by agar dilution method; type: functional
Escherichia coli [12] = assay: Antibacterial activity against non-gentamicin-resistant Escherichia coli clinical isolate assessed as susceptible isolates after 18 hrs by agar dilution method; type: functional
Enterobacter cloacae [13] = assay: Antibacterial activity against non-gentamicin-resistant Enterobacter cloacae clinical isolate assessed as susceptible isolates after 18 hrs by agar dilution method; type: functional
Klebsiella aerogenes [14] = assay: Antibacterial activity against non-gentamicin-resistant Enterobacter aerogenes clinical isolate assessed as susceptible isolates after 18 hrs by agar dilution method; type: functional
Citrobacter koseri [15] = assay: Antibacterial activity against non-gentamicin-resistant Citrobacter diversus clinical isolate assessed as susceptible isolates after 18 hrs by agar dilution method; type: functional
Citrobacter freundii [16] = assay: Antibacterial activity against non-gentamicin-resistant Citrobacter freundii clinical isolate assessed as susceptible isolates after 18 hrs by agar dilution method; type: functional
Providencia rettgeri [17] = assay: Antibacterial activity against non-gentamicin-resistant Proteus rettgeri clinical isolate assessed as susceptible isolates after 18 hrs by agar dilution method; type: functional
[18] = system: Acinetobacter calcoaceticus; assay: Antibacterial activity against non-gentamicin-resistant Acinetobacter calcoaceticus clinical isolate assessed as susceptible isolates after 18 hrs by agar dilution method; type: functional
Pseudomonas aeruginosa [19] = assay: Antibacterial activity against non-gentamicin-resistant Pseudomonas aeruginosa clinical isolate assessed as susceptible isolates after 18 hrs by agar dilution method; type: functional
Pseudomonas sp. [20] = assay: Antibacterial activity against non-gentamicin-resistant Pseudomonas spp. clinical isolate assessed as susceptible isolates after 18 hrs by agar dilution method; type: functional
Haemophilus influenzae [21] = assay: Antibacterial activity against non-gentamicin-resistant Haemophilus influenzae clinical isolate assessed as susceptible isolates after 18 hrs by agar dilution method; type: functional, organism-based
Staphylococcus aureus [22] = assay: Antibacterial activity against non-gentamicin-resistant Staphylococcus aureus clinical isolate assessed as susceptible isolates after 18 hrs by agar dilution method; type: functional
Enterobacter cloacae [23] = assay: Antibacterial activity against gentamicin-resistant Enterobacter cloacae clinical isolate after 18 hrs by agar dilution method; type: functional
Citrobacter koseri [24] = assay: Antibacterial activity against gentamicin-resistant Citrobacter diversus clinical isolate after 18 hrs by agar dilution method; type: functional
Proteus mirabilis [25] = assay: Antibacterial activity against gentamicin-resistant Proteus mirabilis clinical isolate after 18 hrs by agar dilution method; type: functional
Serratia marcescens = assay: Antibacterial activity against gentamicin-resistant Serratia marcescens clinical isolate after 18 hrs by agar dilution method; type: functional
Morganella morganii [26] = assay: Antibacterial activity against gentamicin-resistant Morganella morganii clinical isolate after 18 hrs by agar dilution method; type: functional
Citrobacter freundii [27] = assay: Antibacterial activity against gentamicin-resistant Citrobacter freundii clinical isolate after 18 hrs by agar dilution method; type: functional
Pseudomonas aeruginosa [28] = assay: Antibacterial activity against gentamicin-resistant Pseudomonas aeruginosa clinical isolate after 18 hrs by agar dilution method; type: functional
Pseudomonas sp. [29] = assay: Antibacterial activity against gentamicin-resistant Pseudomonas spp. clinical isolate after 18 hrs by agar dilution method; type: functional
Staphylococcus aureus [30] = assay: Antibacterial activity against gentamicin-resistant Staphylococcus aureus clinical isolate after 18 hrs by agar dilution method; type: functional
[31] = system: Staphylococcus epidermidis; assay: Antibacterial activity against gentamicin-resistant Staphylococcus epidermidis clinical isolate after 18 hrs by agar dilution method; type: functional
Enterococcus faecalis [32] = assay: Antibacterial activity against gentamicin-resistant Enterococcus faecalis clinical isolate after 18 hrs by agar dilution method; type: functional
Escherichia coli [33] = assay: Antibacterial activity against gentamicin-resistant Escherichia coli clinical isolate assessed as susceptible isolates after 18 hrs by agar dilution method; type: functional
Enterobacter cloacae [34] = assay: Antibacterial activity against gentamicin-resistant Enterobacter cloacae clinical isolate assessed as susceptible isolates after 18 hrs by agar dilution method; type: functional
Klebsiella aerogenes [35] = assay: Antibacterial activity against gentamicin-resistant Enterobacter aerogenes clinical isolate assessed as susceptible isolates after 18 hrs by agar dilution method; type: functional
Proteus mirabilis [36] = assay: Antibacterial activity against gentamicin-resistant Proteus mirabilis clinical isolate assessed as susceptible isolates after 18 hrs by agar dilution method; type: functional
Morganella morganii [37] = assay: Antibacterial activity against gentamicin-resistant Morganella morganii clinical isolate assessed as susceptible isolates after 18 hrs by agar dilution method; type: functional
Providencia rettgeri [38] = assay: Antibacterial activity against gentamicin-resistant Proteus rettgeri clinical isolate assessed as susceptible isolates after 18 hrs by agar dilution method; type: functional
Pseudomonas aeruginosa [39] = assay: Antibacterial activity against gentamicin-resistant Pseudomonas aeruginosa clinical isolate assessed as susceptible isolates after 18 hrs by agar dilution method; type: functional
Pseudomonas sp. [40] = assay: Antibacterial activity against gentamicin-resistant Pseudomonas spp. clinical isolate assessed as susceptible isolates after 18 hrs by agar dilution method; type: functional
Staphylococcus aureus [41] = assay: Antibacterial activity against gentamicin-resistant Staphylococcus aureus clinical isolate assessed as susceptible isolates after 18 hrs by agar dilution method; type: functional
[42] = system: Staphylococcus epidermidis; assay: Antibacterial activity against gentamicin-resistant Staphylococcus epidermidis clinical isolate assessed as susceptible isolates after 18 hrs by agar dilution method; type: functional
Enterococcus faecalis [43] = assay: Antibacterial activity against gentamicin-resistant Enterococcus faecalis clinical isolate assessed as susceptible isolates after 18 hrs by agar dilution method; type: functional, organism-based
[44] = system: Escherichia coli BL21(DE3); assay: Acetylation activity of AAC(6')-APH(2'') in Escherichia coli BL21(DE3) assessed as production of free pyridine-4-thiolate
[45] = system: Escherichia coli BL21(DE3); assay: Phosphorylation activity of AAC(6')-APH(2'') in Escherichia coli BL21(DE3) assessed as oxidation of NADH by pyruvate kinase

CN[C@@H]1[C@@H](O)[C@@H](O[C@@H]2[C@@H](O)[C@H](O[C@@H]3OC(C(C)N)=CC[C@@H]3N)[C@@H](N)C[C@H]2N)OC[C@]1(C)O (some centres undefined) [VERDAMICIN]
MIC50 (Escherichia coli [1]): 0.5 µg/mL (≈ 1.08 µM) | MIC90 (Escherichia coli [1]): 0.5 µg/mL (≈ 1.08 µM) | MIC50 (Klebsiella aerogenes [2]): 0.5 µg/mL (≈ 1.08 µM) | MIC90 (Klebsiella aerogenes [2]): 1 µg/mL (≈ 2.17 µM) | MIC (Citrobacter koseri [3]): 0.25 µg/mL (≈ 0.542 µM) | MIC50 (Citrobacter koseri [3]): 0.25 µg/mL (≈ 0.542 µM) | MIC90 (Citrobacter koseri [3]): 0.5 µg/mL (≈ 1.08 µM) | MIC50 (Citrobacter freundii [4]): 0.5 µg/mL (≈ 1.08 µM) | MIC90 (Citrobacter freundii [4]): 64 µg/mL (≈ 139 µM) | MIC50 (Providencia rettgeri [5]): 2 µg/mL (≈ 4.33 µM) | MIC90 (Providencia rettgeri [5]): 8 µg/mL (≈ 17.3 µM) | MIC50 [6]: 0.5 µg/mL (≈ 1.08 µM) | MIC90 [6]: 2 µg/mL (≈ 4.33 µM) | MIC50 (Pseudomonas aeruginosa [7]): 8 µg/mL (≈ 17.3 µM) | MIC90 (Pseudomonas aeruginosa [7]): 16 µg/mL (≈ 34.7 µM) | MIC50 (Pseudomonas sp. [8]): 2 µg/mL (≈ 4.33 µM) | MIC90 (Pseudomonas sp. [8]): 8 µg/mL (≈ 17.3 µM) | MIC50 (Haemophilus influenzae [9]): 1 µg/mL (≈ 2.17 µM) | MIC90 (Haemophilus influenzae [9]): 1 µg/mL (≈ 2.17 µM) | MIC50 [10]: 1 µg/mL (≈ 2.17 µM) | MIC90 [10]: 2 µg/mL (≈ 4.33 µM) | MIC50 (Staphylococcus aureus [11]): 0.125 µg/mL (≈ 0.271 µM) | MIC90 (Staphylococcus aureus [11]): 8 µg/mL (≈ 17.3 µM) | Activity (Escherichia coli [12]): 98.1% | Activity (Enterobacter cloacae [13]): 98.2% | Activity (Klebsiella aerogenes [14]): 98.1% | Activity (Citrobacter koseri [15]): 100% | Activity (Citrobacter freundii [16]): 72.2% | Activity (Providencia rettgeri [17]): 100% | Activity [18]: 98% | Activity (Pseudomonas aeruginosa [19]): 86.9% | Activity (Pseudomonas sp. [20]): 100% | Activity (Haemophilus influenzae [21]): inactive | Activity (Staphylococcus aureus [22]): 94.8% | MIC50 (Enterobacter cloacae [23]): 128 µg/mL (≈ 277 µM) | MIC90 (Enterobacter cloacae [23]): > 128 µg/mL | MIC50 (Citrobacter koseri [24]): > 128 µg/mL | MIC90 (Citrobacter koseri [24]): > 128 µg/mL | MIC50 (Proteus mirabilis [25]): > 128 µg/mL | MIC90 (Proteus mirabilis [25]): > 128 µg/mL | MIC50 (Serratia marcescens): > 128 µg/mL | MIC90 (Serratia marcescens): > 128 µg/mL | MIC50 (Morganella morganii [26]): 64 µg/mL (≈ 139 µM) | MIC90 (Morganella morganii [26]): 128 µg/mL (≈ 277 µM) | MIC50 (Citrobacter freundii [27]): 32 µg/mL (≈ 69.3 µM) | MIC90 (Citrobacter freundii [27]): > 128 µg/mL | MIC50 (Pseudomonas aeruginosa [28]): > 128 µg/mL | MIC90 (Pseudomonas aeruginosa [28]): > 128 µg/mL | MIC50 (Pseudomonas sp. [29]): 128 µg/mL (≈ 277 µM) | MIC90 (Pseudomonas sp. [29]): > 128 µg/mL | MIC50 (Staphylococcus aureus [30]): 32 µg/mL (≈ 69.3 µM) | MIC90 (Staphylococcus aureus [30]): > 128 µg/mL | MIC50 [31]: 8 µg/mL (≈ 17.3 µM) | MIC90 [31]: > 128 µg/mL | MIC50 (Enterococcus faecalis [32]): 128 µg/mL (≈ 277 µM) | MIC90 (Enterococcus faecalis [32]): > 128 µg/mL | Activity (Escherichia coli [33]): 3.5% | Activity (Enterobacter cloacae [34]): 5.3% | Activity (Klebsiella aerogenes [35]): 0% | Activity (Proteus mirabilis [36]): 18.2% | Activity (Morganella morganii [37]): 8.3% | Activity (Providencia rettgeri [38]): 20% | Activity (Pseudomonas aeruginosa [39]): 2.9% | Activity (Pseudomonas sp. [40]): 3.8% | Activity (Staphylococcus aureus [41]): 5.6% | Activity [42]: 50% | Activity (Enterococcus faecalis [43]): inactive | Km [44]: 656 µM | Km [45]: 41.4 µM
